Assay [1] relates to mouse model of acute lung injury (ALI). Conditions: Xia et al. 2016, Song et al. 2019; cited from earlier work.
A further assay has as its target T1, Mas receptor (Homo sapiens, UniProt P04201).
T1 sequence (P04201 1-325): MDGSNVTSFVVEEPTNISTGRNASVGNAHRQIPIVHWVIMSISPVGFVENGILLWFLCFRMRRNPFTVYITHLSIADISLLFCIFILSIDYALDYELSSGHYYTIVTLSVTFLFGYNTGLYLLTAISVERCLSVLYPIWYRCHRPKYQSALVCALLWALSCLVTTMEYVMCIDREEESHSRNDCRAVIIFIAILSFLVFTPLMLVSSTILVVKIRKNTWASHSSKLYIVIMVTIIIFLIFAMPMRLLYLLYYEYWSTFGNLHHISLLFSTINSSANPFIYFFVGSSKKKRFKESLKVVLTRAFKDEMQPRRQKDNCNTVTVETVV
The settings on record: Dilda et al. 2019; cited from earlier work.

In assay [2] the test system is hypertensive type SH (spontaneously hypertensive) rats. The experiment in a line: Mean arterial pressure by telemetry in spontaneously hypertensive rats, single oral administration. In kind it is in vivo, rat. Conditions: Enalapril 50 mg/kg. The protocol:
The effects of BIO101 alone were evaluated after a single oral administration. Six SH rats were used in crossover treatments with an elimination period of a minimum of 72 hours between treatments. Prior to the treatment, the animals were equipped with telemetry instruments for measuring arterial pressure. For the experiment described in FIG. 2A the animals received the following treatments: vehicle, either BIO101 at 5 mg/kg, or BIO101 at 50 mg/kg, or Enalapril at 50 mg/kg.
The inventors tested the phytoecdysones and more particularly BIO101 on the mean arterial pressure by telemetry, in hypertensive animals after oral administration at the doses of 5 and 50 mg/kg. The study relates to hypertensive type SH (spontaneously hypertensive) rats.
BIO101 therefore has no anti-hypertensive effect.

Each structure is given as a SMILES string.

On to `CC(C)(O)CC[C@@H](O)[C@](C)(O)[C@H]1CC[C@@]2(O)C3=CC(=O)[C@@H]4C[C@@H](O)[C@@H](O)C[C@]4(C)[C@H]3CC[C@]12C` [20-hydroxyecdysone], for which, in assay [1], the “anti-inflammatory cytokines (IL-4, IL-10)” value is reported as “increased”; the “lung injuries (histological examination)” value was “reduction in lung injuries”; the “plasmatic inflammatory cytokines (TNF-α, IL-2, IL-6, IL-8)” value is “reduced”. Moreover, the “activity on Mas receptor” value at Mas receptor is “activates”.

As to `CCOC(=O)[C@H](CCc1ccccc1)N[C@@H](C)C(=O)N1CCC[C@H]1C(=O)O` [Enalapril], the “anti-hypertensive activity (mean arterial pressure)” value in assay [2] is “has an anti-hypertensive activity”.

Values taken from patent publication US12551495B2, “Phytoecdysones and derivatives thereof for use in treating disordered respiratory function on viral infection” (priority 2020, dated 2026).
